Test results as given in patent US8940271B2, “Transmucosal administration of drug compositions for treating and preventing disorders in animals” (Abbott Laboratories, priority 2005, dated 2015).
Like-named read-outs stand apart in the source and are kept apart here.

How the values were obtained:
[1] = pH dependence of dissolution/precipitation of 1% meloxicam; format: physicochemical; conditions: 95:5 water:propylene glycol, concentrated NaOH solution (10 M) added
[2] = Canine meloxicam absorption study (TMOM vs oral suspension); conditions: ~0.2 mg/kg, dogs
Description: The average oral suspension dose was 0.20 mg/kg (range 0.19-0.21 mg/kg), and the average dose using transmucosal oral administration was 0.20 mg/kg (range 0.19-0.21 mg/kg). Blood samples were obtained at 0, 5, 30 minutes and 1, 2, 4, 8, 12, 24, 48, and 72 hours post dose.
The AUC represents the area under the curve or the total amount of drug exposure to the animal following administration by the two different dosage forms. […] Absorption half-life is the amount of time it takes for half of what is left at the site of absorption to be absorbed.

[3] = pH dependence of dissolution/precipitation of 1% meloxicam; format: physicochemical
Description: NaOH solution (1 M) was added to the mixture to provide a pH of 10. […] Each solution was then titrated with HCl (aq). […] Similarly, for the 85:15 water:ethanol solvent system, a precipitate formed when the initial apparent pH of 12 was reduced to 7.7 (by addition of HCl).

[4] = Canine anesthetized meloxicam absorption study; conditions: TMOM
Description: A canine anesthetized absorption study was also carried out. The subjects were anesthetized dogs using minimal pre-anesthetics (isoflurane via an endotracheal tube). The possibility of run off into and absorption by the gastrointestinal tract was prevented by obstructing the esophagus with a Foley catheter. […] Blood samples were taken 0, 5, 30 min, and 1, 2, 4, 8, 12, 24, and 72 hours post-dose. Jugular and cephalic vein samples were obtained 5, 30 min and 4, 8 hours post-dose.

[5] = Stability of meloxicam with various solubilizing agents; format: physicochemical; conditions: storage with PVA, Polysorbate 80 or glycerin
[6] = Clemastine two-way crossover, tablets vs TMOM, canine
Description: (§2) The target dose for canine subjects was 1 mg/kg (both transmucosal oral administration and tablets). The average tablet dose was 0.96 mg/kg (0.95-0.97 mg/kg) and the average transmucosal oral administration dose was 0.97 mg/kg (0.91-1.06 mg/kg) administered in a spray volume of 400-650 μL using 4-7 pumps of the spray device. The target dose for feline subjects was also 1 mg/kg for both transmucosal oral administration and tablets. The average tablet dose of 1.07 mg/kg (0.89-1.22 mg/kg) and the average transmucosal oral administration dose was 0.95 mg/kg (0.83-1.14 mg/kg) administered in a spray volume of 100-200 μL using 1-2 pumps of the spray device. The target dose for equine subjects was 0.1 mg/kg for both transmucosal oral administration and tablets. The average tablet dose (via stomach tube) was 0.1 mg/kg (0.10-0.11 mg/kg) and the average transmucosal oral administration dose was 0.1 mg/kg (0.09-0.11 mg/kg) administered in a spray volume of 1.4-1.7 mL using 14-17 pumps of the spray device.
(§3) Blood samples were taken 5, 15, 30 min, 1, 2, 4, 7, 12, 24 hours post dose.

[7] = Clemastine two-way crossover, tablets (stomach tube) vs TMOM, equine
Description: as §2, §3

in vivo [8] = conditions: dog, plasma, po, 1 mg/kg
Description: as §2, §3

[9] = Canine anesthetized clemastine absorption study; format: in vivo, dog; conditions: anesthetized canine subjects, TMOM
Description: A canine anesthetized absorption study was also carried out.

in vivo [10] = conditions: horse, plasma, po, 0.1 mg/kg
Description: as §2, §3

[11] = equine, oral gavage; Törneke et al. 2003; cited from earlier work
[12] = Milbemycin canine study, tablets vs TMOM; format: in vivo, dog; conditions: dogs
Description: A twelve dog random parallel design was carried out to compare conventional oral administration (i.e., tablets) of Milbemycin with transmucosal oral administration. The tablets used were Interceptor® Flavor Tab®, 5.75 mg and 11.5 mg, providing an average dose of 0.78 mg/kg (0.50-0.99 mg/kg).

[13] = cited from earlier work
[14] = Canine carprofen study (caplet, TMOM, subcutaneous injection); format: in vivo, dog; conditions: dogs
[15] = Canine anesthetized carprofen absorption study; format: in vivo, dog; conditions: TMOM
Description: A canine anesthetized absorption study was also carried out. […] The carprofen was administered using a transmucosal oral mist. Blood samples were taken 0, 5, 15, 30 min, and 1, 2, 4, 8, 12, and 24 hours post-dose. Jugular and cephalic vein samples were obtained 5, 15 and 30 and 1 and 2 hours post-dose. The target dosage was 2.2 mg/kg (50 mg/mL Rimadyl® injectable solution, 300 μL (15 mg), target dose range 1.9-2.5 mg/kg).

[16] = Zolpidem two-way crossover, tablet vs TMOM, feline
Description: (§1) A six animal (canine and feline) two-way crossover experiment was carried out in which the subjects were administered a zolpidem tablet or a transmucosal oral mist of a 2.5% zolpidem tartrate solution.
Feline subjects were administered tablets (average dose 0.74 mg/kg) or a transmucosal oral mist (average dose 0.72 mg/kg). The transmucosal oral mist used a spray volume of 100 μL in 1 pump of the spray dispenser.

[17] = Zolpidem two-way crossover, tablet vs TMOM, canine; conditions: for absorption time and absorption half-life, TMOM vs tablet / peak plasma concentration (Cmax), TMOM vs tablet: dogs
Description: as §1
Canine subjects were administered tablets (average dose 0.55 mg/kg (0.40-0.63 mg/kg)) or a transmucosal oral mist (average dose 0.55 mg/kg (0.42-0.62 mg/kg)). The transmucosal oral mist administration used a spray volume of 200-250 μL in 2-3 pumps of the spray dispenser. By comparison, the average human dose is 0.08-0.17 mg/kg

[18] = Enrofloxacin feline study, tablets vs TMOM; format: in vivo, cat; conditions: cats
Description: A six cat, two-way crossover study was carried out to compare conventional oral administration (i.e., tablets, Baytril®) with transmucosal oral administration (Baytril® 100; 100 mg of enrofloxacin, L-arginine base 200 mg, n-butyl alcohol 30 mg, benzyl alcohol (as a preservative) 20 mg, and water for injection, q.s.). The target was 5 mg/kg enrofloxacin. The average tablet dose was 4.7 mg/kg and the average TMOM™ dose was 4.9 mg/kg (250-300 μL).

[19] = dogs
Description: A six dog, two-way crossover experiment was carried out with a target dose of 6.0 mg/kg propofol administered by IV, and 30.0 mg/kg of propofol using transmucosal oral administration.

[20] = ~0.5 mg/kg, listed as zolpidem tartrate

Cc1cnc(NC(=O)C2=C(O)c3ccccc3S(=O)(=O)N2C)s1 [Meloxicam, 4-hydroxy-2-methyl-N-(5-methyl-2-thiazolyl)-2H-1,2-benzothiazine-3-carboxamide-1,1-dioxide]
dissolution of 1% meloxicam [1]: did not dissolve
bioequivalence to meloxicam administered via an oral suspension [2]: bioequivalent
pH needed for meloxicam to remain in solution [3]: greater than 8.0
pH value of solution causing meloxicam precipitation [3]: less than 8
apparent pH at which a precipitate formed ([3]; 1% meloxicam, 85:15 water:ethanol, initial apparent pH of 12 reduced by HCl): 7.7
pH at which meloxicam precipitation was observed ([3]; 1% meloxicam, 100% water, titrated with HCl (aq)): 7.2
dissolution of 1% meloxicam ([3]; 80% water/15% EtOH/5% Poloxamer 188, 1 M NaOH added to pH of 10): dissolve
dissolution of 1% meloxicam ([3]; 80% water/15% EtOH/5% Poloxamer 188, acidified to pH of 7 with 0.2 M HCl): precipitate
dissolution of 1% meloxicam ([3]; 80% water/15% EtOH/5% Poloxamer 188, additional 1 M NaOH, pH to 8): redissolved and remained in solution
dissolution of 1% meloxicam ([3]; 80% water/15% EtOH/5% Poloxamer 188, pH of approximately 5.8): did not dissolve completely
dissolution of 1% meloxicam ([3]; 100% water, pH adjusted to 10.1): redissolved
dissolution of 1% meloxicam ([3]; 100% water, pH then reduced to approximately 7.8): no further precipitation
jugular plasma levels as compared to cephalic (systemic) levels ([4]; anesthetized dogs, at 30 min and 4 h): higher
part of the dose in an awake animal delivered transmucosally ([4]; dogs): ≤ 90%
physical stability of the meloxicam solution [5]: greater with PVA than Polysorbate 80 or glycerin

CN1CCC[C@@H]1CCO[C@](C)(c1ccccc1)c1ccc(Cl)cc1 [clemastine]
salivation ([6]; canine subjects): none to moderate
peak (Cmax), transmucosal oral vs tablet ([6]; canine, ~1 mg/kg): much higher
AUC and Cmax, TMOM route vs oral tablet route ([6]; dogs, 1 mg/kg): about an order of magnitude greater
Tmax, transmucosal oral vs oral gavage of tablets ([7]; 0.1 mg/kg): shorter
bioavailability, transmucosal oral vs oral gavage of tablets ([7]; 0.1 mg/kg): significantly better
bioavailability of clemastine in tablet form ([7]; oral gavage): extremely poor
Tmax (in vivo [8]): ~10 min
absorption via the transmucosal route [9]: readily absorbed
half-life (in vivo [10]): 168 min
t1/2 [11]: 2.9 h
absorption (cats): well absorbed
salivation (feline subjects): mild to severe
AUC values, transmucosal oral vs tablet (feline, ~1 mg/kg, appears to be an artifact of salivation): Lower

Milbemycin
variability of plasma concentrations, transmucosal vs tablet [12]: less variable
uptake by transmucosal oral administration ([12]; 0.28 mg/kg): very good
bioavailability, transmucosal oral administration vs conventional tablet ([12]; corrected for dosage): similar

C[C@H]1O[C@@H](O[C@H]2[C@@H](O)C[C@H](O[C@H]3[C@@H](O)C[C@H](O[C@H]4CC[C@@]5(C)[C@H](CC[C@@H]6[C@@H]5C[C@@H](O)[C@]5(C)[C@@H](C7=CC(=O)OC7)CC[C@]65O)C4)O[C@@H]3C)O[C@@H]2C)C[C@H](O)[C@@H]1O [Digoxin, (3β,5β,12β)-3-[(O-2,6-dideoxy-β-D-ribo-hexopyranosyl-(1,4)-O-2,6-dideoxy-β-D-ribo-hexopyranosyl-(1,4)-O-2,6-dideoxy-β-D-ribo-hexopyranosyl)oxy]-12,14-dihydroxy-card-20(22)-enolide]
solubility ([13]; in chloroform): slightly soluble
solubility ([13]; in diluted (e.g., about 50%) alcohol): slightly soluble
solubility ([13]; in ether): practically insoluble
solubility ([13]; in pyridine): freely soluble
solubility ([13]; in water): practically insoluble

CC(C(=O)O)c1ccc2c(c1)[nH]c1ccc(Cl)cc12 (stereo not shown) [carprofen]
Cmax and AUC values, caplet vs transmucosal oral administration [14]: very similar
Cmax of the subcutaneous injection relative to caplet or transmucosal oral administration [14]: approximately half
Tmax, transmucosal oral administration vs caplet [14]: shorter
absorption and Tmax, subcutaneous injection vs caplet or TMOM [14]: slower absorption and greater time to peak concentrations
absorption, transmucosal oral administration vs caplet [14]: slightly faster
lag time ([14]; transmucosal oral administration): no lag time
AUC values of the three administration methods ([14]; caplet, TMOM, subcutaneous injection): all similar
plasma jugular levels as compared to cephalic levels ([15]; anesthetized dogs, at 30 min): higher
AUC for anesthetized animals relative to awake animals ([15]; dogs): approximately 25%

Cc1ccc(-c2nc3ccc(C)cn3c2CC(=O)N(C)C)cc1 [zolpidem, N,N-6-trimethyl-2-p-tolyl-imidazo[1,2-a]pyridine-3-acetamide]
absorption time, peak plasma concentration, and total absorption, TMOM vs tablet ([16]; cats, within experimental error): comparable
AUC, TMOM vs tablet ([16]; feline, salivation can lead to reduced absorption): lower
vomiting after TMOM administration ([17]; canine, 12 minutes after administration): One of the canine subjects vomited
time within which substantially all of the dose was absorbed ([17]; canine, TMOM): ≤ 12 min
AUC, TMOM vs tablet ([17]; canine, ~0.5 mg/kg): greater
Tmax, TMOM vs tablet ([17]; canine, ~0.5 mg/kg): shorter
absorption time and absorption half-life, TMOM vs tablet ([17]; ~0.5 mg/kg): shorter
peak plasma concentration (Cmax), TMOM vs tablet ([17]; ~0.5 mg/kg): greater
absorption time and absorption half-life, TMOM vs tablet [17, 20]: significantly lower (shorter)
peak plasma concentration (Cmax), TMOM vs tablet [17, 20]: higher

CCN1CCN(c2cc3c(cc2F)c(=O)c(C(=O)O)cn3C2CC2)CC1 [enrofloxacin]
lag time in uptake ([18]; TMOM): no lag time
jugular plasma concentrations as compared to cephalic concentrations ([18]; TMOM, 5 min time point): Consistently and significantly higher
AUC, Cmax, Tmax or t1/2 values, transmucosal vs conventional administration ([18]; ~5 mg/kg): essentially no difference

CC(C)c1cccc(C(C)C)c1O [propofol]
uptake using transmucosal oral administration [19]: rapid
Cmax value compared to IV administration ([19]; TMOM ~30 mg/kg vs IV ~6 mg/kg): somewhat lower
part of transmucosally administered dose absorbed ([19]; TMOM ~30 mg/kg, by 2 hours): Greater than 90%
